From patent US20050118226A1, “Methods for treating ACAT-related diseases” (priority 2003, published 2005)

How the values were obtained:
amyloid plaques = test: Brain plaque load in hAPP mice (thioflavin S and 6E10 Aβ staining); assay type: in vivo, mouse
Procedure: For histomorphological analyses, 8 to 15 histological sections (10 μm) were prepared from one hemisphere of 12 animals (6 placebo, 6 CP-113,818; 3 male, 3 female per group). Number and surface area of amyloid plaques were evaluated in both cortex and hippocampus. 6E10 (Signet; 1:5000; monoclonal) as primary antibody, and Cy™3 fluorescent goat anti-mouse IgG as secondary antibody (Jackson Immuno Research) were used for Aβ staining. Sections of the same brains were also used for synaptophysin staining (Chemicon; 1:5000; monoclonal). Synaptophysin immunoreactive spots were counted by light microscopy in the hippocampal CA1 region. The estimation of immunohistochemical reactions was done by computer-assisted quantification (IMAGE PRO PLUS, Media Cybernetics).
Brain plaque load was evaluated by thioflavin S and immunohistochemical stainings (FIG. 3). Thioflavin S-positive plaques were barely detectable in the cortex of hAPP mice at 6.5 months of age and absent in CP-113,818-treated animals (FIG. 2A). […] Individual differences in amyloid load reflected the well-known variability in Aβ accumulation that has been previously observed in transgenic mice, specifically at early stages of pathology (Johnson-Wood et al., 1997; Kawarabayashi et al., 2001). Amyloid load in the cortex of female animals was two-fold higher than in males, in agreement with previous studies in other mouse models of AD (Callahan et al., 2001; Lee et al., 2002; Wang et al., 2003). The hippocampus, slower than the cortex in developing amyloid pathology in hAPP mice, contained significant numbers of Aβ deposits only in female, but not in male, animals (FIG. 3B and FIG. 4). […] Importantly, when the two genders were considered separately, plaque numbers were reduced to an equal extent in females and males, by 89%, p<0.00002, and 88%, p<0.0002, respectively (FIG. 3B). […] In females the decrease was from 0.45 to 0.04 percent plaque load (p<0.00002), while in males it was from 0.10 to 0.02 (p<0.00013; FIG. 4B). As mentioned above, amyloid load in the hippocampus of male animals was too low at this age for reliable assessment of changes caused by CP-113,818.

Aβ1-40 and Aβ1-42 = test: Sandwich ELISA of brain Aβ1-40 and Aβ1-42 in hAPP mice; assay type: in vivo, mouse
Procedure: For Aβ determinations, frozen hemispheres were first homogenized in TBS-buffer (5 ml) containing a protease inhibitor cocktail (Protease Inhibitor Cocktail Set I, Calbiochem) and then centrifuged at 75000 g for 1 hour, as described elsewhere (Kawarabayashi et al., 2001). Supernatants were saved for soluble Aβ analyses (see below). Pellets were resuspended and further homogenized in 70% formic acid (1 ml), followed by centrifugation at 75000 g for 1 hour. Formic acid-supernatants were neutralized with 1M TRIS (19 ml) and used for ELISA determination (insoluble Aβ). Aβ1-40 and Aβ1-42 were assayed using commercially available ELISA kits (The Genetics Company®, Switzerland). Measurements were performed at least in duplicate. Soluble Aβ ELISAs: secreted Aβ1-40 and Aβ1-42 levels in the TBS homogenate were analyzed by a sandwich ELISA system as described previously using the following antibodies: Aβ40=MM27 33.1.1 capture, MM32 13.1.1 for detection; Aβ42=MM27 33.1.1 capture, MM26 4.1.3 for detection (Suzuki et al., 1994).
We next used a sandwich enzyme-linked immunosorbent assay (ELISA) to measure Aβ1-40 and Aβ1-42 levels in 70% formic acid extracts from brain homogenates (“insoluble” Aβ) and in the initial TBS fraction of the same homogenates (soluble Aβ). Similar to plaque load, Aβ levels varied widely, as expected in transgenic mice specifically at early stages of pathology (Johnson-Wood et al., 1997; Kawarabayashi et al., 2001). Treatment with CP-113,818 decreased Aβ1-40 and Aβ1-42 in the formic acid fraction to almost undetectable concentrations. […] Since brain extracts were obtained from entire hemispheres including cortices and hippocampi, the difference between male and female Aβ levels at this age was accentuated by the slowly developing amyloid pathology in male hippocampi (see FIG. 3B). When analyzed according to gender, only female “insoluble” Aβ was sufficiently elevated to obtain a highly significant decrease by CP-113,818 treatment, with Aβ1-40 down by 96% (p<0.014) and Aβ1-42 down by 90% (p<0.014; FIG. 5A). […] This decrease was statistically significant in both genders. Soluble Aβ1-40 levels were close to the limit of detection, but a trend toward decrease was observed (20%) in all animals, significant only in males (FIG. 5B).

[1] = female hAPP mice, brain formic acid extracts
[2] = hAPP mice, all animals, brain formic acid extracts

## CCCCCCCC[C@H](SCCCCCC)C(=O)Nc1c(SC)cc(C)nc1SC [CP-113,818]
Amyloid plaques; female hAPP mice, cortex, 6E10 staining, 57 days
  reduction of cortical plaque number, females: 89%
Amyloid plaques; female hAPP mice, cortex, day 0 without vs day 57 with treatment
  cortical plaque numbers / Aβ staining at beginning versus end of treatment: remarkably similar
Amyloid plaques; female hAPP mice, cortex, placebo 0.45
  percent plaque load in cortex after treatment, females: 0.04%
Amyloid plaques; female hAPP mice, hippocampus, 57 days
  decrease of plaque number in the hippocampus of female mice: 99%
Amyloid plaques; female hAPP mice, hippocampus, placebo 0.295
  percent plaque load in hippocampus after treatment, females: 0.09%
Amyloid plaques; hAPP mice at 6.5 months of age
  thioflavin S-positive plaques in the cortex: absent
Amyloid plaques; hAPP mice, all animals, cortex, 6E10 staining, 57 days
  reduction of cortical plaque number: 88%
Amyloid plaques; hAPP mice, all animals, cortex, 57 days
  decrease of plaque burden (percent of cortex covered by plaques): 90%
Amyloid plaques; male hAPP mice, cortex, 6E10 staining, 57 days
  reduction of cortical plaque number, males: 88%
Amyloid plaques; male hAPP mice, cortex, placebo 0.10
  percent plaque load in cortex after treatment, males: 0.02%
Aβ1-40 and Aβ1-42; [1]
  decrease in insoluble Aβ1-40, females: 96%
  decrease in insoluble Aβ1-42, females: 90%
Aβ1-40 and Aβ1-42; hAPP mice, TBS fraction lacking detergents
  reduction of soluble Aβ1-42: 34%
Aβ1-40 and Aβ1-42; [2]
  decrease in insoluble Aβ1-40: 92%
  decrease in insoluble Aβ1-42: 83%
Aβ1-40 and Aβ1-42; hAPP mice, insoluble Aβ
  Aβ1-42/Aβ1-40 ratio: no significant difference
Aβ1-40 and Aβ1-42; transgenic mice
  decrease of "insoluble" Aβ (summary): 83-99%
